Where two headings read alike, the source gives them in different places.
Experiments:
human CB2 receptors = human CB2 receptors (Homo sapiens (Human), UniProt P34972); assay: functional cAMP assay, CHO cells expressing human CB2; type: cell-based; settings: Human CB2 EC50 (uM)
Protocol: (§1) CHO cells expressing human CB1 or CB2 receptors are seeded 17-24 hours prior to the experiment 50.000 cells per well in a black 96 well plate with flat clear bottom (Corning Costar #3904) in DMEM (Invitrogen No. 31331), 1×HT supplement, with 10% fetal calf serum and incubated at 5% CO2 and 37° C. in a humidified incubator. The growth medium was exchanged with Krebs Ringer Bicarbonate buffer with 1 mM IBMX and incubated at 30° C. for 30 min. Compounds were added to a final assay volume of 100 μl and incubated for 30 min at 30° C. Using the cAMP-Nano-TRF detection kit the assay (Roche Diagnostics) was stopped by the addition of 50 μl lysis reagent (Tris, NaCl, 1.5% Triton X100, 2.5% NP40, 10% NaN3) and 50 μl detection solutions (20 μM mAb Alexa700-cAMP 1:1, and 48 μM Ruthenium-2-AHA-cAMP) and shaken for 2 h at room temperature. The time-resolved energy transfer is measured by a TRF reader (Evotec Technologies GmbH), equipped with a ND:YAG laser as excitation source. The plate is measured twice with the excitation at 355 nm and at the emission with a delay of 100 ns and a gate of 100 ns, total exposure time 10 s at 730 (bandwidth 30 nm) or 645 nm (bandwidth 75 nm), respectively. The FRET signal is calculated as follows: FRET=T730-Alexa730-P(T645-B645) with P=Ru730-B730/Ru645-B645, where T730 is the test well measured at 730 nM, T645 is the test well measured at 645 nm, B730 and B645 are the buffer controls at 730 nm and 645 nm, respectively. cAMP content is determined from the function of a standard curve spanning from 10 μM to 0.13 nM cAMP.
(§2) EC50 values were determined using Activity Base analysis (ID Business Solution, Limited). The EC50 values for a wide range of cannabinoid agonists generated from this assay were in agreement with the values published in the scientific literature.

human CB1 receptors = human CB1 receptors (Homo sapiens (Human), UniProt P21554); assay: functional cAMP assay, CHO cells expressing human CB1; type: cell-based; settings: functional cAMP assay, CHO cells expressing human CB1
Protocol: as §1, §2

Sequence of human CB1 receptors (P21554 whole entry): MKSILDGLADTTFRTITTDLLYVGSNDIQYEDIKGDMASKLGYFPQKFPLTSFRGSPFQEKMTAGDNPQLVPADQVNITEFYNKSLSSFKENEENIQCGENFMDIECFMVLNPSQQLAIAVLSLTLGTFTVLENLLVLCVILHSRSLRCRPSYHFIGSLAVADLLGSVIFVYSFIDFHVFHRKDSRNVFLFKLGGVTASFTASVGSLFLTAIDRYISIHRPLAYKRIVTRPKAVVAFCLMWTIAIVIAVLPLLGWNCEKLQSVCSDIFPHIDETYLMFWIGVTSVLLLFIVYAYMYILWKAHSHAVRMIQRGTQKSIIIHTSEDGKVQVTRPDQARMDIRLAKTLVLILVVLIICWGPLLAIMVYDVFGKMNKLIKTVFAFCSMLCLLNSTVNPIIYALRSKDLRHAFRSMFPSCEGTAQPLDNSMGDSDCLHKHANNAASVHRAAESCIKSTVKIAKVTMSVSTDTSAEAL
Sequence of human CB2 receptors (P34972 whole entry): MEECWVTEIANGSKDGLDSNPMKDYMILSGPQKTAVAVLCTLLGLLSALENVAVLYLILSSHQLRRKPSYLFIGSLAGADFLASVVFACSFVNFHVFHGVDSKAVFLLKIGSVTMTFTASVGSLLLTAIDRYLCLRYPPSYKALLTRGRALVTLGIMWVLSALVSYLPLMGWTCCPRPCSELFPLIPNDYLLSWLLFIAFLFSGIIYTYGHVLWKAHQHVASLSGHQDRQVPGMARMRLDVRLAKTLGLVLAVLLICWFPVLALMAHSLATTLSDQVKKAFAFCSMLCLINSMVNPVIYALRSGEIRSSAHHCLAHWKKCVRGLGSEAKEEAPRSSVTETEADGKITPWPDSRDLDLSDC

Row | SMILES | EC50 (human CB2 receptors) [µM] | EC50 (human CB1 receptors; read-out: Human CB1 EC50) [µM] | EC50 (human CB1 receptors; Human CB1 EC50 (uM)) [µM]
1 | CNC(=O)C(NC(=O)c1cc(OCC(F)(F)F)c(C2CC2)cn1)C(C)(C)C (single isomer, unassigned) [Example 225, 5-cyclopropyl-N-[3,3-dimethyl-1-(methylamino)-1-oxobutan-2-yl]-4-(2,2,2-trifluoroethoxy)pyridine-2-carboxamide] | 0.0004 | > 10 | –
2 | CC(C)(C)C(NC(=O)c1cc(OCC(F)(F)F)c(C2CC2)cn1)c1noc(N)n1 (single isomer, unassigned) [Example 226, N-[1-(5-amino-1,2,4-oxadiazol-3-yl)-2,2-dimethylpropyl]-5-cyclopropyl-4-(2,2,2-trifluoroethoxy)pyridine-2-carboxamide] | 0.0065 | – | > 10
3 | CC(C)(C)C(NC(=O)c1cc(OCC(F)(F)F)c(C2CC2)cn1)c1noc(N)n1 (single isomer, unassigned) [Example 227, N-[1-(5-amino-1,2,4-oxadiazol-3-yl)-2,2-dimethylpropyl]-5-cyclopropyl-4-(2,2,2-trifluoroethoxy)pyridine-2-carboxamide] | 0.015 | > 10 | –
4 | Cn1nnnc1C(C)(CC1CC1)NC(=O)c1cc(OCC(F)(F)F)c(C2CC2)cn1 (single isomer, unassigned) [Example 228, 5-cyclopropyl-N-[1-cyclopropyl-2-(1-methyltetrazol-5-yl)propan-2-yl]-4-(2,2,2-trifluoroethoxy)pyridine-2-carboxamide] | 0.0346 | – | > 10
5 | CNC(=O)CC(C)(NC(=O)c1cc(OCC(F)(F)F)c(C2CC2)cn1)C1CC1 (single isomer, unassigned) [Example 241, 5-cyclopropyl-N-[2-cyclopropyl-4-(methylamino)-4-oxobutan-2-yl]-4-(2,2,2-trifluoroethoxy)pyridine-2-carboxamide] | 0.0119 | – | > 10
6 | CNC(=O)CC(C)(NC(=O)c1cc(OCC(F)(F)F)c(C2CC2)cn1)C1CC1 (single isomer, unassigned) [Example 242, 5-cyclopropyl-N-[2-cyclopropyl-4-(methylamino)-4-oxobutan-2-yl]-4-(2,2,2-trifluoroethoxy)pyridine-2-carboxamide] | 0.237 | > 10 | –
7 | CC(CC(N)=O)(NC(=O)c1cc(OCC(F)(F)F)c(C2CC2)cn1)C1CC1 (single isomer, unassigned) [Example 243, N-[4-amino-2-cyclopropyl-4-oxobutan-2-yl]-5-cyclopropyl-4-(2,2,2-trifluoroethoxy)pyridine-2-carboxamide] | 0.0005 | – | > 10
8 | CC(CC(N)=O)(NC(=O)c1cc(OCC(F)(F)F)c(C2CC2)cn1)C1CC1 (single isomer, unassigned) [Example 244, N-[4-amino-2-cyclopropyl-4-oxobutan-2-yl]-5-cyclopropyl-4-(2,2,2-trifluoroethoxy)pyridine-2-carboxamide] | 0.0284 | > 10 | –
9 | CC(C)(C)C(NC(=O)c1cc(OCC2CC2)c(N2CC(F)(F)C2)cn1)C(N)=O (single isomer, unassigned) [Example 260, N-[1-amino-3,3-dimethyl-1-oxobutan-2-yl]-4-(cyclopropylmethoxy)-5-(3,3-difluoroazetidin-1-yl)pyridine-2-carboxamide] | 0.0209 | – | > 10
10 | CC(C)(C)C(NC(=O)c1cc(OCC2CC2)c(N2CC(F)(F)C2)cn1)C(N)=O (single isomer, unassigned) [Example 261, N-[1-amino-3,3-dimethyl-1-oxobutan-2-yl]-4-(cyclopropylmethoxy)-5-(3,3-difluoroazetidin-1-yl)pyridine-2-carboxamide] | 0.0211 | > 10 | –
11 | CC(C)(C)C(NC(=O)c1cc(OCC(F)(F)F)c(N2CC(F)(F)C2)cn1)C(N)=O (single isomer, unassigned) [Example 262, N-[1-amino-3,3-dimethyl-1-oxobutan-2-yl]-5-(3,3-difluoroazetidin-1-yl)-4-(2,2,2-trifluoroethoxy)pyridine-2-carboxamide] | 0.261 | – | > 10
12 | CC(C)(C)C(NC(=O)c1cc(OCC(F)(F)F)c(N2CC(F)(F)C2)cn1)C(N)=O (single isomer, unassigned) [Example 263, N-[1-amino-3,3-dimethyl-1-oxobutan-2-yl]-5-(3,3-difluoroazetidin-1-yl)-4-(2,2,2-trifluoroethoxy)pyridine-2-carboxamide] | 0.0338 | > 10 | –
13 | CC1(C(NC(=O)c2cc(OCC(F)(F)F)c(C3CC3)cn2)C(N)=O)COC1 (single isomer, unassigned) [Example 268, N-[2-amino-1-(3-methyloxetan-3-yl)-2-oxoethyl]-5-cyclopropyl-4-(2,2,2-trifluoroethoxy)pyridine-2-carboxamide] | 0.225 | – | > 10
14 | CC1(C(NC(=O)c2cc(OCC(F)(F)F)c(C3CC3)cn2)C(N)=O)COC1 (single isomer, unassigned) [Example 269, N-[2-amino-1-(3-methyloxetan-3-yl)-2-oxoethyl]-5-cyclopropyl-4-(2,2,2-trifluoroethoxy)pyridine-2-carboxamide] | 0.771 | > 10 | –
15 | CC(CC(N)=O)(NC(=O)c1cc(OCCF)c(C2CC2)cn1)C1CC1 (single isomer, unassigned) [Example 270, N-[4-amino-2-cyclopropyl-4-oxobutan-2-yl]-5-cyclopropyl-4-(2-fluoroethoxy)pyridine-2-carboxamide] | 0.0689 | – | > 10
16 | CC(CC(N)=O)(NC(=O)c1cc(OCCF)c(C2CC2)cn1)C1CC1 (single isomer, unassigned) [Example 271, N-[4-amino-2-cyclopropyl-4-oxobutan-2-yl]-5-cyclopropyl-4-(2-fluoroethoxy)pyridine-2-carboxamide] | 0.0015 | > 10 | –
17 | CC(CC(N)=O)(NC(=O)c1cc(OCC(F)F)c(C2CC2)cn1)C1CC1 (single isomer, unassigned) [Example 272, N-[4-amino-2-cyclopropyl-4-oxobutan-2-yl]-5-cyclopropyl-4-(2,2-difluoroethoxy)pyridine-2-carboxamide] | 0.0495 | – | > 10
18 | CC(CC(N)=O)(NC(=O)c1cc(OCC(F)F)c(C2CC2)cn1)C1CC1 (single isomer, unassigned) [Example 273, N-[4-amino-2-cyclopropyl-4-oxobutan-2-yl]-5-cyclopropyl-4-(2,2-difluoroethoxy)pyridine-2-carboxamide] | 0.0017 | > 10 | –
19 | CC(CC(N)=O)(NC(=O)c1cc(OCC(F)(F)F)c(N2CC(F)(F)C2)cn1)C1CC1 (single isomer, unassigned) [Example 275, N-[4-amino-2-cyclopropyl-4-oxobutan-2-yl]-5-(3,3-difluoroazetidin-1-yl)-4-(2,2,2-trifluoroethoxy)pyridine-2-carboxamide] | 0.0227 | – | > 10
20 | CC(CC(N)=O)(NC(=O)c1cc(OCC(F)(F)F)c(N2CC(F)(F)C2)cn1)C1CC1 (single isomer, unassigned) [Example 276, N-[4-amino-2-cyclopropyl-4-oxobutan-2-yl]-5-(3,3-difluoroazetidin-1-yl)-4-(2,2,2-trifluoroethoxy)pyridine-2-carboxamide] | 0.137 | > 10 | –
21 | C[C@H](Oc1cc(C(=O)NC(C)(CC(N)=O)C2CC2)ncc1C1(F)COC1)C(F)(F)F (single isomer, unassigned) [Example 277] | 0.0431 | – | > 10
22 | C[C@H](Oc1cc(C(=O)NC(C)(CC(N)=O)C2CC2)ncc1C1(F)COC1)C(F)(F)F (single isomer, unassigned) [Example 278] | 0.0929 | > 10 | –
23 | Cc1nc(C(C)(CS(C)(=O)=O)NC(=O)c2cc(OCCF)c(C3CC3)cn2)no1 (single isomer, unassigned) [Example 279, 5-cyclopropyl-4-(2-fluoroethoxy)-N-[2-(5-methyl-1,2,4-oxadiazol-3-yl)-1-methylsulfonylpropan-2-yl]pyridine-2-carboxamide] | 0.173 | – | > 10
24 | Cc1nc(C(C)(CS(C)(=O)=O)NC(=O)c2cc(OCCF)c(C3CC3)cn2)no1 (single isomer, unassigned) [Example 280, 5-cyclopropyl-4-(2-fluoroethoxy)-N-[2-(5-methyl-1,2,4-oxadiazol-3-yl)-1-methylsulfonylpropan-2-yl]pyridine-2-carboxamide] | 0.0786 | > 10 | –

Source: US9409866B2, “Pyridine-2-amides useful as CB2 agonists” (Hoffmann-La Roche Inc., priority 2012, dated 2016)
